In patent US20110118298A1, “COMPOSITIONS, KITS, AND METHODS FOR IDENTIFICATION, ASSESSMENT, PREVENTION, AND THERAPY OF CANCER” (INFINITY PHARMACEUTICALS, INC., priority 2009, published 2011):
Entries after “also recorded” stand apart in the source; their conditions may differ. Structures can show the parent of a compound that is named as a salt.

Legend:
[1] = test system: Colo320HSR, NCI-H716, SNU-C1, C2BBe1 xenografts; assay: Colorectal xenografts wild type for both KRAS and BRAF; assay type: in vivo, Nu/Nu mice; conditions: 100 mg/kg three times weekly, oral
Protocol: Preparation of a suspension of this solid amorphous dispersion was made by levigating the solid with glycerol with a spatula followed by homogenization in a 1% hydroxyethylcellulose solution in a high speed homogenizer for 10 minutes to provide in vehicle (1% hydroxyethylcellulose, 5% glycerol). The suspension was used to administer 17-AG in the below described in vivo experiments.
In the third set of studies, the Colo320HSR (FIG. 22A), NC1—H716 (FIG. 22B), SNU-C1 (FIG. 22C) and C2BBe1 (FIG. 22D) cell lines were employed all of which are wild type for both KRAS and BRAF. 5-6 week old Nu/Nu mice were implanted subcutaneously with 10×10^6 cells for each cell line used and dosing by oral gavage commenced after tumors had reached approximately 150-200 mm^3 on a dosing schedule of three times weekly (M, W, F) with a suspension of 50% 17-AG in HPMC-AS-HG dispersion in vehicle (1% hydroxyethylcellulose, 5% glycerol) at a dose level of 100 mg/kg 17-AG (IPI-493) as compared to vehicle control.

[2] = test system: mutant EGFR; assay: Time to client protein degradation by immunoblot, H1650 cells; assay type: cell-based, human; conditions: 1 uM IPI-504
Protocol: FIG. 7B is panel of immunoblot images showing the levels of ALK, phospho-ALK and cleaved-PARP in H3122 cells, HER2 in BT474 cells, and EGFR in H1650 cells at various time points after IPI-504 (1 uM) treatment. Proteins levels were monitored by immunoblotting.
Rearrangements at the ALK locus have been reported in about 5% of NSCLC patients, forming an oncogenic fusion of the N-terminus of EML4 with the C-terminal kinase domain of ALK (Soda, M. et al. (2007) Nature 448: 561-6). To determine whether the EML4-ALK fusion protein is a client protein of Hsp90, we incubated the EML4-ALK-expressing NSCLC cell line H3122 with increasing concentrations of IPI-504 and measured the abundance of total and phosphorylated ALK protein by ELISA (FIG. 7a). In this experiment, virtually all ALK protein is degraded at concentrations above 50 nM IPI-504. The degradation IC50 measured (4 nM) makes this the most sensitive Hsp90 client protein we have encountered. […] To further confirm that EML4-ALK is indeed a client of Hsp90, we performed immunoprecipitations with an antibody directed against Hsp90a, and detected a protein band at the predicted molecular weight ([…]) with an ALK antibody in Hsp90 immunoprecipitates from H3122 cells but not control cells (FIG. 7c, lane 1 and 3). […]

Row | SMILES | effect on tumor growth in wild-type kRAS/bRAF models [1] | effect on tumor growth in wild-type kRAS/bRAF models ([1]; listed as 17-AG) | time for most of the mutEGFR to be degraded [2]
1 | CO[C@H]1/C=C\C=C(/C)C(=O)NC2=CC(=O)C(N)=C(C[C@@H](C)C[C@H](OC)[C@H](O)[C@@H](C)/C=C(\C)[C@@H]1OC(N)=O)C2=O [IPI-493, 17-AG] | no detactable effect on TGI; also recorded: did not lead to tumor growth inhibition | no detectable difference in tumor volume | –
2 | C=CCNc1c(O)cc2c(O)c1C[C@@H](C)C[C@H](OC)[C@H](O)[C@@H](C)/C=C(\C)[C@H](OC(N)=O)[C@@H](OC)/C=C\C=C(/C)C(=O)N2 [IPI-504, retaspimycin hydrochloride] | – | – | about 24 h
